For four molecules, Ki and IC50 results are on record in BindingDB's records for doi:10.1096/fj.02-0026fje (Chul, 2002).

Assay [1] deals with T1, 17-beta-hydroxysteroid dehydrogenase type 1 (Homo sapiens, UniProt P14061).
T1 sequence (P14061 whole entry): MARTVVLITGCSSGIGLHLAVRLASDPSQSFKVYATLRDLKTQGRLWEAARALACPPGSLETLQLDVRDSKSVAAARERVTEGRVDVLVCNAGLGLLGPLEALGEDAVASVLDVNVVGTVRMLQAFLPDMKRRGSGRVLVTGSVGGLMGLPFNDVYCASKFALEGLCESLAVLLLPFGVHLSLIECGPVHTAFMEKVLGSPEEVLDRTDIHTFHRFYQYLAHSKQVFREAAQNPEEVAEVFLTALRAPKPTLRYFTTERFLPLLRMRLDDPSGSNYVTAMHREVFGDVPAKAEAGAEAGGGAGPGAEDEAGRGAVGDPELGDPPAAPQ
As to the kind of experiment: Enzyme Inhibition on the Conversion of E2 to E1 by 17beta-HSD1. As to conditions: pH 7.5; 37 °C. From the text: For steady-state kinetic study of hybrid inhibitors, a Fluorolog 3 instrument was used to monitor the fluorescent signal of NADPH formed during estradiol oxidation, through which the substrate conversion is monitored. The excitation wavelength was 340 nm, and the emission wavelength was 460 nm. […] Ki was further determined by a plot of Km vs. the inhibitor concentration.

In assay [2] the target is T1, 17-beta-hydroxysteroid dehydrogenase type 1. As to the kind of experiment: Enzymatic Assay (Inhibition of Type 1 17beta-HSD). The conditions noted are these: pH 7.4; 37 °C. How it is done: The enzymatic reaction was performed in the reaction buffer containing substrate, [14C]-estrone, and the test inhibitors. After the reaction, radiolabeled steroids were extracted from the reaction mixture, and solvent was evaporated to dryness. Steroids were dissolved and separated on TLC plates. Radioactivity signals were detected and quantified using a PhosphoImager (Sunny Vale, CA). The percentage of transformation of [14C]-E1 into [14C]-E2 was calculated. The IC50 values were calculated using an unweighted iterative least-squares method for four-parameter logistic curve fitting (DE50 program, CHUL Research Center, Quebec).

In the case of `C[C@]12CC[C@@H]3c4ccc(O)cc4CC[C@H]3[C@@H]1CC(CCCCCCCCC(=O)OCC1OC(n3cnc4c(N)ncnc43)C(O)C1O)[C@@H]2O` (stereo not given in full) [EM1745], affinity in assay [1] was put at a Ki of 0.003 µM. Moreover, the IC50 (usually the concentration that gives 50% inhibition) in assay [2] was 52 nM.

As to `C[C@]12CC[C@@H]3c4ccc(O)cc4CC[C@H]3[C@@H]1CC(CCCCCCCC(=O)OCC1OC(n3cnc4c(N)ncnc43)C(O)C1O)[C@@H]2O` (stereo partly drawn) [[5-(6-amino-9H-purin-9-yl)-3,4-dihydroxyoxolan-2-yl]methyl 8-[(1S,10R,11S,14S,15S)-5,14-dihydroxy-15-methyltetracyclo[8.7.0.0^{2,7}.0^{11,15}]heptadeca-2,4,6-trien-13-yl]octanoate], the IC50 in assay [2] was found to be 93 nM.

The molecule `C[C@]12CC[C@@H]3c4ccc(O)cc4CC[C@H]3[C@@H]1CC(CCCCCCCCCC(=O)OCC1OC(n3cnc4c(N)ncnc43)C(O)C1O)[C@@H]2O` (stereo partly drawn) [[5-(6-amino-9H-purin-9-yl)-3,4-dihydroxyoxolan-2-yl]methyl 10-[(1S,10R,11S,14S,15S)-5,14-dihydroxy-15-methyltetracyclo[8.7.0.0^{2,7}.0^{11,15}]heptadeca-2,4,6-trien-13-yl]decanoate] displayed an IC50 in assay [2] of 140 nM.

As for `CCCCCCCCC(=O)OCC1OC(n2cnc3c(N)ncnc32)C(O)C1O` (stereo not given) [[5-(6-amino-9H-purin-9-yl)-3,4-dihydroxyoxolan-2-yl]methyl nonanoate], affinity in assay [1] was put at a Ki of 250 µM.
